Data reported in patent US12605377B2, “Methods of treating fibrosis” (Endeavor Biomedicines, Inc., priority 2020, dated 2026).
Structures can show the parent of a compound that is named as a salt. Where two headings read alike, the source gives them in different places.

Experiments:
[1] = test system: IPF patients; conditions: cited from earlier work; for effect on FVC in clinical trials (FIG. 1): IPF patients, 24 weeks (GLPG1690 12 weeks), vismodegib in combination with pirfenidone
[2] = cited from earlier work; for predominant AE causing discontinuation: comparator drugs
[3] = test system: kidney fibrosis; conditions: in vivo; cited from earlier work
[4] = test system: GIi1 mRNA; conditions: vismodegib at its MTD of 150 mg; cited from earlier work
[5] = test system: mGli1; experiment: PK/PD GIi1 expression in Balb/c surrogate tissues after single oral dose (qRT-PCR TaqMan); format: in vivo, Balb/c mouse
From the text: (§1) Following the predetermined dosing period, surrogate tissues (lung, skin, and cerebellum) from Balb/C mouse and tumor from Ptch^−/+×p53^−/− transgenic tumor model were harvested, processed, and evaluated for GIi1 expression levels using a quantitative reverse transcription polymerase chain reaction TaqMan® assay. […] Given the parallel PD effects, skin GIi1 is an appropriate PD surrogate for lung tissue GIi1.

[6] = test system: Brain Tumor mGli1; experiment: PK/PD GIi1 expression in Ptch−/+ × p53−/− transgenic tumor model (qRT-PCR TaqMan); format: in vivo, mouse; conditions: PTCH Tg, single oral dose
From the text: as §1

[7] = test system: Hh signaling activity in human Daoy cells; experiment: GIi1 transcript levels in Daoy tumor cell line stimulated with SHh-CM (branched chain DNA assay); format: cell-based; conditions: GIi1 mRNA, n=8, geometric mean±SE
[8] = test system: Hh signaling activity in mouse C3H10T½ cells; experiment: Gli-Luciferase activity in C3H10T½ cells stimulated with SHh-CM; format: cell-based; conditions: n=8, geometric mean±SE
[9] = clinical safety and tolerability (MTD, adverse events, discontinuations)
Protocol: (§2) Taldegib was administered to subjects at doses of 50, 100, 200, 400 and 600 mg.

[10] = test system: α-SMA protein expression (myofibroblasts); experiment: bleomycin-induced pulmonary fibrosis model, anti-α-SMA immunohistochemistry; conditions: 5 mg/kg orally daily from day seven, pathology on day 21
From the text: FIG. 4B depicts the percent α-SMA positive area from the individual mice and the mean and standard deviation for the treatment groups.
A Microsprayer® Aerosolizer was used to perform intratracheal administration of bleomycin. By administering bleomycin via Microsprayer® Aerosolizer, it can be evenly exposed to the lungs and thus, develops a reproducible and uniform pathology.
Pathology of animals was examined on day 21 of the study.

[11] = test system: IPF; experiment: Phase 2 multi-center study of safety and efficacy in subjects with IPF; format: in vivo, human
From the text: Quantitative (% and mL) and qualitative (improved, same, worse) assessment of lung fibrosis by HRCT will be performed at Screening and Week 12. The Screening HRCT will serve as the baseline for study HRCT assessments.

[12] = clinical pharmacokinetics; conditions: human, in vivo
[13] = test system: GIi1 activity; conditions: Daoy cells, assay of U.S. Pat. No. 9,000,023; cited from earlier work
[14] = test system: GIi1 mRNA; experiment: GIi1 mRNA inhibition in skin biopsies of clinical subjects; format: in vivo, human
Protocol: as §2

[15] = test system: lung fibrosis
[16] = test system: Hh; conditions: Zhu et al. 2019; read-out: ID50 for Hh inhibition; cited from earlier work
[17] = oral bioavailability; conditions: in vivo
From the text: This molecule has been in over 192 human subjects and developed initially with the intention of treating oncologic indications with a focus on lung cancer and basal cell carcinoma (BCC). Although primarily cancer patients, these studies allowed for a preliminary understanding of dose and tolerability.

[18] = Biopharmaceutics Classification System (BCS) class; format: physicochemical
[19] = Balb/c, cerebellum, single oral dose
[20] = after sufficient step-down of dosage, if any

For `CCc1nc2c(C)cc(N3CCN(CC(=O)N4CC(O)C4)CC3)cn2c1N(C)c1nc(-c2ccc(F)cc2)c(C#N)s1` [zirtaxestat], the “effect on FVC in clinical trials (FIG. 1)” value (“effect on FVC” for short) [1] is listed as “small increase in FVC”.

In the case of `COC(=O)c1ccc2c(c1)NC(=O)/C2=C(\Nc1ccc(N(C)C(=O)CN2CCN(C)CC2)cc1)c1ccccc1` [nintedanib], the “effect on FVC” value [1] is listed as “only able to slow the deterioration of FVC” and the “predominant AE causing discontinuation” value [2] is listed as “diarrhea”.

In the case of `CC1=C2C[C@H]3[C@@H](CC[C@@H]4C[C@H](NS(C)(=O)=O)CC[C@@]43C)[C@@H]2CC[C@@]2(C1)O[C@@H]1C[C@H](C)CN[C@H]1[C@H]2C` [IPI-926], the “efficacy in treating kidney fibrosis” value [3] is given as “ineffective”.

For `CS(=O)(=O)c1ccc(C(=O)Nc2ccc(Cl)c(-c3ccccn3)c2)c(Cl)c1` [vismodegib], the “effect on FVC” value [1] is given as “substantial increase in FVC”, the “increase in Forced Vital Capacity (FVC)” value ([1]; single arm IPF study, combination with pirfenidone, after six months, average) is given as “approximately 100 mL” and the “predominant AE causing discontinuation” value [2] is given as “muscle spasms”. For the same compound, the discontinuation of participants ([2]; single arm IPF study, combination with pirfenidone, severe muscle spasms) was “over 40%”, the “Muscle Spasm Adverse Event Frequency, Grade 1” value ([2]; vismodegib 150, 104 patients) was 43% (45) and the “Muscle Spasm Adverse Event Frequency, Grade 2” value ([2]; vismodegib 150, 104 patients) was 22% (23). The “Muscle Spasm Adverse Event Frequency, Grade 3” value ([2]; vismodegib 150, 104 patients) was 6% (7), the “Muscle Spasm Adverse Event Frequency, Grade 4” value ([2]; vismodegib 150, 104 patients) was 0% and the MTD ([2]; vismodegib) was 150 mg. For the same compound, the “GIi1 mRNA inhibition” value [4] was “less than 50%”.

For `CC1=C2C[C@H]3[C@@H](CC=C4C[C@@H](O)CC[C@@]43C)[C@@H]2CC[C@]12O[C@@H]1C[C@H](C)CN[C@H]1[C@H]2C` [cyclopamine], the “efficacy in treating kidney fibrosis” value [3] is given as “ineffective”.

For `CN(C(=O)c1ccc(F)cc1C(F)(F)F)C1CCN(c2nnc(-c3ccnn3C)c3ccccc23)CC1` [Taladegib hydrochloride], the “Cerebellum mGli1 TEC50” value [5, 19] was 230 ng/mL, the “Cerebellum mGli1 TED50” value [5, 19] was 2.2 mg/kg and the “Lung mGli1 TEC50” value ([5]; Balb/c, lung, single oral dose) was 264 ± 114 ng/mL. The “Lung mGli1 TED50” value ([5]; Balb/c, lung, single oral dose) was 2.6 ± 0.6 mg/kg, the “Skin mGli1 TEC50” value ([5]; Balb/c, skin, single oral dose) was 84 ng/mL and the “Skin mGli1 TED50” value ([5]; Balb/c, skin, single oral dose) was 1.1 mg/kg. The “duration of sustained target inhibition” value ([5]; time course, single oral dose 8 mg/kg) was “at least 24 hours”, the “Brain Tumor mGli1 TEC50” value [6] was 63.0 ng/mL and the “Brain Tumor mGli1 TED50” value [6] was 1.0 mg/kg. For the same compound, the IC50 [7] was 2.22 ± 1.14 nM and the IC50 [8] was 11.2 ± 5.33 nM.

For `Cc1ccc(=O)n(-c2ccccc2)c1` [pirfenidone], the “effect on FVC” value [1] is listed as “only able to slow the deterioration of FVC” and the “predominant AE causing discontinuation” value [2] is listed as “nausea”.

For `CN(C(=O)c1ccc(F)cc1C(F)(F)F)C1CCN(c2nnc(-c3ccnn3C)c3ccccc23)CC1` [taladegib], the “most commonly observed adverse events (AEs)” value ([9]; human, in vivo) was “nausea, diarrhea, dysgeusia, fatigue, decreased appetite, alopecia, vomiting, muscle spasm, constipation, weight decrease, and headache”, the “occurrence of muscle spasms” value ([9]; human, in vivo) was 40% and the “predominant AE causing discontinuation” value ([9]; human, in vivo) was “no prevalent AE”. The “clinically established MTD” value ([9]; taladegib) was 400 mg, the “reduction of α-SMA protein expression” value [10] was “approximately 40%” and the “serious drug-related adverse events” value [11, 20] was “did not experience serious drug-related adverse events”. For the same compound, the efficacy endpoints ([11]; at 12 weeks) was “stabilization or improvement”, the dose limiting toxicities ([11]; at 12 weeks, starting at 200 mg/day) was “no or limited dose limiting toxicities are observed” and the “durability of the response” value ([11]; at 18 weeks) was “durability of the response is observed”. The half-life ([12]; across all doses, estimated, read-out: mean half-life (t½) (converted)) was roughly 16 h, the Tmax ([12]; read-out: median tmax) was 2 h and the IC50 [13] was roughly 2.4 nM. For the same compound, the “pharmacological activity (BED: inhibition >50%)” value ([14]; all dose levels tested, 50-600 mg) was “pharmacologically active at all dose levels tested”, the “inhibition of GIi1 mRNA” value ([14]; dose 50 mg) was “greater than 80%” and the “GIi1 mRNA inhibition in skin” value ([14]; dose 400 mg (MTD)) was greater than 85%. For the same compound, the “inhibition of Gli in skin biopsies” value ([14]; doses of 50, 100, 200, 400 and 600 mg, most patients) was greater than 80%, the “serious drug-related adverse events” value [15, 20] was “did not experience serious drug-related adverse events” and the efficacy endpoints ([15]; at 24 weeks, starting at 200 mg daily) was “stabilization or improvement”. For the same compound, the IC50 [16] was 2.26 nM, the bioavailability [17] was 72 to 91% and the BCS class [18] was “class II (high permeability, low solubility)”.
